Consider four compounds from paper PMC9134315, “Systemic Administration of a Brain Permeable Cdk5 Inhibitor Alters Neurobehavior” (Frontiers in Pharmacology, 2022).

Series [1] deals with T1, Cdk5 (Mus musculus, UniProt P49615).
T1 construct: from tissue; host or cells: striatum of wild-type C57BL/6 mice (acute slices, or lysates after I.V. dosing)
Description: In vivo Cdk5 inhibition after I.V. injection, immunoblot of striatal phospho-Ser549 synapsin I. The conditions noted are these: 50 mg/kg I.V., striatal lysates, various time points, data not shown. Here is the method: The wild-type group housed male C57BL/6 mice 10–12 weeks of age were used for all in vivo, ex vivo, and behavioral studies. This age range was selected to be consistent with previous studies of conditional Cdk5 knockout mice ([Plattner et al., 2015]). 25–106 was administered in a 20-fold dose range intravenously (I.V.) at 10, 50, 100, and 200 mg/kg for pharmacokinetic studies. This delivery mode was used as I.V. injections to avoid first-pass drug metabolism observed using other injection methods ([Pond and Tozer, 1984]). […] All animal experiments were performed under approved protocols by the University of Alabama at Birmingham (UAB) Institutional Animal Care and Use Committees and in accordance with the guidelines of the Animal Welfare Act and the Guide for the Care and Use of Laboratory Animals.
(§1) Immunoblotting was performed as previously described ([Umfress et al., 2021]). Mouse brains were rapidly dissected in an ice-cold solution of 50 mM NaF/PBS. The regions of interest were further dissected out and rapidly snap-frozen in dry ice. The frozen tissue was homogenized in boiling lysis buffer (1% SDS, 50 mM NaF) and sonicated with several three to four pulses at 40 dB. The samples were subsequently denatured at 90°C for 5 min. Protein concentration was determined by the BCA assay, and homogenates were diluted in 4x sample buffer, separated by SDS-PAGE, and transferred to 0.45-µm nitrocellulose membranes, blocked with 5% milk solution (1 h), and probed with primary antibodies (overnight). The following antibodies were used in the study: phospho-Ser549 synapsin I (Phosphosolutions), total synapsin I (Phosphosolutions), actin (Invitrogen), phospho-Ser1116 (in-house) ([Plattner et al., 2014]), and total NR2B (Phosphosolutions), phospho-Thr75, and total DARPP-32 (Cell Signaling Technology). Visualization was performed using the Licor CLX membrane scanner and Licor secondary antibodies.
Each of the four compounds tested in brain slices was further screened for their ability to penetrate the blood–brain barrier (BBB) and inhibit Cdk5-dependent activity in vivo. For these studies, cohorts of mice were treated with each compound via I.V. injection (50 mg/kg), and brain striatal lysates from various time points were subjected to quantitative immunoblot analysis for phosho-Ser549 Synapsin I levels. Three compounds, 20–107, 20–132, and 20–143, had no effect on Cdk5 activity compared to that of vehicle alone (data not shown). […] Moreover, this effect persisted even 24 h after dosing.

Series [2] addresses T1, Cdk5. Description: Ex vivo acute striatal brain slice pharmacology, immunoblot of phospho-Thr75 DARPP-32 and phospho-Ser1116 NR2B. Type of series: cell-based. The conditions noted are these: acute striatal slices, 1 h treatment, 0-10 µM; read-out: IC50, Cdk5-dependent phosphorylation of DARPP-32 and NR2B. Here is the method: Brain slice pharmacology was performed as described ([Nishi et al., 2000]). Briefly, the mice were decapitated, and the brains were rapidly dissected and submerged in ice-cold normal Kreb’s solution (124 mM NaCl, 4 mM KCl, 26 mM NaHCO3, 1.25 mM KH2PO4, 1.5 mM MgSO4, 10 mM D-glucose, and 1.5 mM CaCl2). The brains were subsequently sectioned into normal Kreb’s solution at 350 µ thickness. The brain slices were transferred to a 30°C solution of normal Kreb’s containing 10 µM deaminase for a 1-h recovery period. The sections were then incubated in normal Kreb’s solution with and without the indicated compounds across the dose and time ranges indicated. The sections were rapidly snap-frozen in dry ice to terminate treatment regimes.
as §1
In order to assess the functional inhibition of Cdk5 in intact brain tissue by the four compounds summarized in Figure 1, acutely prepared striatal slices were treated in a dose-dependent manner (0, 0.25, 0.5, 1, 5, and 10 µM) with each inhibitor for 1 h, and Cdk5 activity was assessed via immunoblotting the phosphorylation of established Cdk5 sites, phospho-Thr75 DARPP-32 and phospho-Ser1116 NR2B ([Bibb et al., 1999]; [Plattner et al., 2014]).

For series [3] the following is noted: ref Vita et al., 2005; cited from earlier work.

T1 sequence (P49615 whole entry): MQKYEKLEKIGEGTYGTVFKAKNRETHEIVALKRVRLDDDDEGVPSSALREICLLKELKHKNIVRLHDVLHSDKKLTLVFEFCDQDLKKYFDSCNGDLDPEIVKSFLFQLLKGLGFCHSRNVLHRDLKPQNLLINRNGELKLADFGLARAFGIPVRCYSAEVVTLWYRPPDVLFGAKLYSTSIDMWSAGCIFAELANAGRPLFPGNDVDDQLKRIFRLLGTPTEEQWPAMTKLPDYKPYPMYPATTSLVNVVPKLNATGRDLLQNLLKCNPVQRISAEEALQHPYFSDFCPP
T1 sequence (P61809 2-307 partner limits assumed): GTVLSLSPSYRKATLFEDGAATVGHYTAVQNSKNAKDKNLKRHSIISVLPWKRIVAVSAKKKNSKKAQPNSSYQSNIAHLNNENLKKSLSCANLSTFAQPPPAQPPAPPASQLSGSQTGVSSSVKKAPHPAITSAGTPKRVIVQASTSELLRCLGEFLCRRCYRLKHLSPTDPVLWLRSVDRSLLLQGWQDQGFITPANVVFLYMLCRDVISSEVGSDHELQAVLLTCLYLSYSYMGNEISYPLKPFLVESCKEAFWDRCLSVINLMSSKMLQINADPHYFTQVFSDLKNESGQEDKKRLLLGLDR

With `O=C(Cc1ccc2c(c1)OCCO2)Nc1cc(C2CCC2)[nH]n1` [25–107], the “effect on Cdk5 activity (phospho-Ser549 synapsin I) compared to vehicle” value on Cdk5 [1] is “no effect”. Also, on Cdk5 [2], the IC50 was 500 to 1000 nM.
Taken in the same sequence, the figures for `O=C(C/C=C/c1ccccc1)Nc1cc(C2CCC2)[nH]n1` [25–132] were “no effect” and 500 to 1000 nM.
Taken in the same sequence, the figures for `COc1ccc(CC(=O)Nc2cc(C3CCC3)[nH]n2)cc1OC` [25–143] were “no effect” and 500 to 1000 nM.
For `CC[C@H](CO)Nc1nc(NCc2ccccc2)c2ncn(C(C)C)c2n1` [roscovitine], in series [3], the “distribution into the brain” value is reported as “could distribute into the brain”; the “half-life and active metabolites” value is recorded as “rapid half-life with no detectable active metabolites”.
